ChEMBL document CHEMBL1201862, “PubChem BioAssay data set” (2004)
Active and inactive are the calls of the source.

Key:
[1] = target: T1, Ubiquitin-conjugating enzyme E2 N (Homo sapiens, UniProt P61088); assay type: functional
T1 sequence (P61088 whole entry): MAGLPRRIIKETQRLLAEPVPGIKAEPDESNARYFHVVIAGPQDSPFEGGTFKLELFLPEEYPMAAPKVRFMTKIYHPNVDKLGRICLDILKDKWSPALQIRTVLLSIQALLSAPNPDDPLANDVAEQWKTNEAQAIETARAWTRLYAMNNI

cells [2] = conditions: A549
cells [3] = conditions: HEK293
Bcl-2-related protein A1 = target: T2, Bcl-2-related protein A1 (Mus musculus, UniProt Q07440); assay type: functional;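 note: confirmatory dose–response counterscreen on Bfl-1, used to check hits from a UBC13 polyubiquitin inhibitor campaign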
T2 sequence (Q07440 whole entry): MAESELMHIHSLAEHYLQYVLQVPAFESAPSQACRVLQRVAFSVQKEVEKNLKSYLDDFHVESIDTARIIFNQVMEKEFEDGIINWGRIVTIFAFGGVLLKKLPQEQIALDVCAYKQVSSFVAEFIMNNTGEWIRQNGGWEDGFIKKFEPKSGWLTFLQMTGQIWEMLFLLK

[4] = target: T1, Ubiquitin-conjugating enzyme E2 N; assay type: functional; remark: listed apart in the source
[5] = viability loss in HepG2 liver cells – cell-based, ATP luminescence, cherry-pick, set 6, cytotoxicity control, dose response (AID 1053125); assay type: functional
[6] = Intein inhibitors as potential Tuberculosis drugs, a cytotoxicity screen. [Related pubchem assays (depositor defined):AID2221, AID2223, AID434968, AID435010, AID449749, AID449750, AID489010]; assay type: functional
Protein RecA = target: T3, Protein RecA (Mycobacterium tuberculosis, UniProt P9WHJ3); assay: Fluorescence Cell-Free Homogeneous Dose Retest to Identify Inhibitors of RecA-Intein Splicing Activity. [Related pubchem assays (depositor defined):AID2097, AID2223, AID489010, AID492950]; assay type: functional
T3 sequence (P9WHJ3 whole entry): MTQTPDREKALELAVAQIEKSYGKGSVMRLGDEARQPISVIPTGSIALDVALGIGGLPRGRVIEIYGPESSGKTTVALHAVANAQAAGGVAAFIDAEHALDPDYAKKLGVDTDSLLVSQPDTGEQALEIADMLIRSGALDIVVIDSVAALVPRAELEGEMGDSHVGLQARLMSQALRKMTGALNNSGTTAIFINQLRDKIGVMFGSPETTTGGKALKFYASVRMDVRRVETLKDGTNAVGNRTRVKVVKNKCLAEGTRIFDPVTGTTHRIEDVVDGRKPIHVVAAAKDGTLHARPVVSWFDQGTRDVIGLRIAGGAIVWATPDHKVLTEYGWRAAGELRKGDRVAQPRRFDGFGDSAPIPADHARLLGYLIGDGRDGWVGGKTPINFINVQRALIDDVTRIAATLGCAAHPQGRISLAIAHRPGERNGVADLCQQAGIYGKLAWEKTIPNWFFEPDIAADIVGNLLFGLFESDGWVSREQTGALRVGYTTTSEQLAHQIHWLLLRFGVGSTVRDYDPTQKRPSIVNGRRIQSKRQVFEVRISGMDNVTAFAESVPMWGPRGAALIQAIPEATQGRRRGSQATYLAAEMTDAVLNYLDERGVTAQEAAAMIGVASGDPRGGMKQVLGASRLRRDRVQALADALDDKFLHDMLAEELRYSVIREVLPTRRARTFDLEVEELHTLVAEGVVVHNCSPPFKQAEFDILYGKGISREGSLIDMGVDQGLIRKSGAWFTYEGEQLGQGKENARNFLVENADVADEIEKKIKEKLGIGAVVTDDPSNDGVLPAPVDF

cells [7] = assay type: functional, cell-based; conditions: HEK-CNG
[8] = target: T4, Replicative DNA helicase DnaB (Mycobacterium tuberculosis, UniProt P9WMR3); assay: DnaB intein splicing inhibitors, dose response, biochemical, cell-free fluorescence (AID 449749); assay type: functional
T4 sequence (P9WMR3 whole entry): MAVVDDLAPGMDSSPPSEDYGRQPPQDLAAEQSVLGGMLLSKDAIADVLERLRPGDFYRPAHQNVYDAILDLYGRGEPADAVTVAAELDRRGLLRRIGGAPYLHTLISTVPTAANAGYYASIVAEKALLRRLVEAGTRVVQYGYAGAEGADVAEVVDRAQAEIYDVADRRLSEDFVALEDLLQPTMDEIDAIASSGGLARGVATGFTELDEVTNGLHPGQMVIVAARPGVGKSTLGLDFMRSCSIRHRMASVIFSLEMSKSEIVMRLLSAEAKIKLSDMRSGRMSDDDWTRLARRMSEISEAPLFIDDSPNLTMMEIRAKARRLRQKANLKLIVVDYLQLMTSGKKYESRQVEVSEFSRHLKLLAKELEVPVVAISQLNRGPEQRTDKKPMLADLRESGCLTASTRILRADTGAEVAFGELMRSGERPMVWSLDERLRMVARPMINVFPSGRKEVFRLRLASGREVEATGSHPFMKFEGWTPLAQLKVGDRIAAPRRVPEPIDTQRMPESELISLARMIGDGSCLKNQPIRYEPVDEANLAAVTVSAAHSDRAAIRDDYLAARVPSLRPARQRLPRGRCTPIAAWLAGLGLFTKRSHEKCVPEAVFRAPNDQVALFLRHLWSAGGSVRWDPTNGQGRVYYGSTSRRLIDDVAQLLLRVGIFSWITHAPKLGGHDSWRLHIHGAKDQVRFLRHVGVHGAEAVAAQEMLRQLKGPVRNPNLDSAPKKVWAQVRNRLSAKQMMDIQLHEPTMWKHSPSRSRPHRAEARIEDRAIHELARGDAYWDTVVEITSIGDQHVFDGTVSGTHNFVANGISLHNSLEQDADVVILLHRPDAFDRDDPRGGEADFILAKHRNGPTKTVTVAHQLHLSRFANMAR

Galanin receptor type 3 = target: T5, Galanin receptor type 3 (Homo sapiens, UniProt O60755); assay: Fluorescence-based cell-based primary high throughput dose response assay to identify antagonists of the Galanin Receptor 3 (GalR3).; assay type: functional
T5 sequence (O60755 whole entry): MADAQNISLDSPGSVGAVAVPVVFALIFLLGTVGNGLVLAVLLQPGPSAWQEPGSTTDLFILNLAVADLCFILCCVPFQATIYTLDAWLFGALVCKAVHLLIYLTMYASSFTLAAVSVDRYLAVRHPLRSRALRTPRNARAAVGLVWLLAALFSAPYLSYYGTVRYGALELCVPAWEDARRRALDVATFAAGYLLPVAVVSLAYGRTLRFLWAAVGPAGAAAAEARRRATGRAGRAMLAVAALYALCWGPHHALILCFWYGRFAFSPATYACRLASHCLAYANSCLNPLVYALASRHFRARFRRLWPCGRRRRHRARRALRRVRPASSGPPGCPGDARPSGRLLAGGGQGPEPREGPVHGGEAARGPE

Leucine aminopeptidase = target: T6, Leucine aminopeptidase (Plasmodium falciparum 3D7, UniProt Q8IL11); assay: P. falciparum M17LAP inhibitors, primary screen, biochemical, fluorogenic H-Leu-NHMec substrate, 1536-well (AID 1619); assay type: functional
T6 sequence (Q8IL11 whole entry): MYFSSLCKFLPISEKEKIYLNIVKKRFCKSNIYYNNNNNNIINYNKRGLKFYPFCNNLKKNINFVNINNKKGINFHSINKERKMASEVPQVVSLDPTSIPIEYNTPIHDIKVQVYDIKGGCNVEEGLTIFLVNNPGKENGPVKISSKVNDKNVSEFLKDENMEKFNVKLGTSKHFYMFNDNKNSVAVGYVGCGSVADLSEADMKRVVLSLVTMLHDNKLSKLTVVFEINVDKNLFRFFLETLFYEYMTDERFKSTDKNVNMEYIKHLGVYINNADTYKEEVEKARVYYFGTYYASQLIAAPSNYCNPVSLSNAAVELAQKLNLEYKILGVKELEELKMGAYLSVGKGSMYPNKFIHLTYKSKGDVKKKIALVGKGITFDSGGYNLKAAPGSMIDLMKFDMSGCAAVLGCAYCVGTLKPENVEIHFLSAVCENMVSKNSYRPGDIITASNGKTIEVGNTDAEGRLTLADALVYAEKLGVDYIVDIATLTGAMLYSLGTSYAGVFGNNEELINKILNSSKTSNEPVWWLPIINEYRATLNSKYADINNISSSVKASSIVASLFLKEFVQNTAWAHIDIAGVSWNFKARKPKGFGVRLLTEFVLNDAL

T-cell = assay: loss of vesicle association with mouse CD8+ T cells – mouse 2C CD8+ T cells, flow cytometry, dose response (AID 485284); assay type: functional
Cannabinoid receptor 2 [9] = target: T7, Cannabinoid receptor 2 (Homo sapiens, UniProt P34972); assay: SAR analysis of agonists of the Cannabinoid Receptor 2 using an Image-Based Assay - Set 3. [Related pubchem assays (depositor defined):AID2013, AID2026]; assay type: functional
Cannabinoid receptor 1 [10] = target: T8, Cannabinoid receptor 1 (Homo sapiens, UniProt P21554); assay: SAR analysis of antagonists of the Cannabinoid Receptor 1 using an Image-Based Assay - Set 4. [Related pubchem assays (depositor defined):AID2013, AID2026]; assay type: functional
Cannabinoid receptor 1 [11] = target: T8, Cannabinoid receptor 1; assay: SAR analysis of agonists of the Cannabinoid Receptor 1 using an Image-Based Assay - Set 4. [Related pubchem assays (depositor defined):AID2013, AID2026]; assay type: functional
[12] = target: T9, G-protein coupled receptor 35 (Homo sapiens, UniProt Q9HC97); assay: SAR analysis of Antagonists of the GPR35 Receptor using an Image-Based Assay - Set 6. [Related pubchem assays (depositor defined):AID2013, AID2026]; assay type: functional
Cannabinoid receptor 2 [13] = target: T7, Cannabinoid receptor 2; assay: SAR analysis of antagonists of the Cannabinoid Receptor 2 using an Image-Based Assay - Set 3. [Related pubchem assays (depositor defined):AID2013, AID2026]; assay type: functional
[14] = target: G-protein coupled receptor 55 (Homo sapiens, UniProt Q9Y2T6); assay: SAR Analysis of Selective Antagonists of GPR55 using an Image-Based Assay - Set 4. [Related pubchem assays (depositor defined):AID2013, AID2026]; assay type: functional;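 note: antagonism of response to 5 µM lysophosphatidylinositol agonist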
[15] = target: T9, G-protein coupled receptor 35; assay: SAR analysis of Agonists of the GPR35 Receptor using an Image-Based Assay - Set 4. [Related pubchem assays (depositor defined):AID2013, AID2026]; assay type: functional
[16] = target: T10, Type-1 angiotensin II receptor (Homo sapiens, UniProt P30556); assay: agonist activity at AGTR1 – cell-based, uHTS hits, selectivity assay for APJ receptor agonist project, dose response (AID 488865); assay type: functional;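 note: beta-arrestin recruitment to AT1 measured by enzyme fragment complementation luminescence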
T10 sequence (P30556 whole entry): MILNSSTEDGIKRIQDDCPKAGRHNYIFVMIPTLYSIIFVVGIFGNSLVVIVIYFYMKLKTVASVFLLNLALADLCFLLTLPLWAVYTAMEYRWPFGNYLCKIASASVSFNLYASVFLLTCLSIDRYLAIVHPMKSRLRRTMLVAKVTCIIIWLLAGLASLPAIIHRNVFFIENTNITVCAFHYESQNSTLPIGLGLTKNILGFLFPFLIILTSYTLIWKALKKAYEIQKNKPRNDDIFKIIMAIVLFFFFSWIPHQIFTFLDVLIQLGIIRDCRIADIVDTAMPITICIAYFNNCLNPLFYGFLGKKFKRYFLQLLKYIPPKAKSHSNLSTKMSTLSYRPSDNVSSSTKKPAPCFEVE

[17] = target: T11, DNA repair and recombination protein RAD54-like (Homo sapiens, UniProt Q92698); assay: RAD54 Holliday junction migration blockers – biochemical, fluorescence, cherry-picked samples, dose series, confirmation (AID 651657); assay type: functional
T11 sequence (Q92698 whole entry): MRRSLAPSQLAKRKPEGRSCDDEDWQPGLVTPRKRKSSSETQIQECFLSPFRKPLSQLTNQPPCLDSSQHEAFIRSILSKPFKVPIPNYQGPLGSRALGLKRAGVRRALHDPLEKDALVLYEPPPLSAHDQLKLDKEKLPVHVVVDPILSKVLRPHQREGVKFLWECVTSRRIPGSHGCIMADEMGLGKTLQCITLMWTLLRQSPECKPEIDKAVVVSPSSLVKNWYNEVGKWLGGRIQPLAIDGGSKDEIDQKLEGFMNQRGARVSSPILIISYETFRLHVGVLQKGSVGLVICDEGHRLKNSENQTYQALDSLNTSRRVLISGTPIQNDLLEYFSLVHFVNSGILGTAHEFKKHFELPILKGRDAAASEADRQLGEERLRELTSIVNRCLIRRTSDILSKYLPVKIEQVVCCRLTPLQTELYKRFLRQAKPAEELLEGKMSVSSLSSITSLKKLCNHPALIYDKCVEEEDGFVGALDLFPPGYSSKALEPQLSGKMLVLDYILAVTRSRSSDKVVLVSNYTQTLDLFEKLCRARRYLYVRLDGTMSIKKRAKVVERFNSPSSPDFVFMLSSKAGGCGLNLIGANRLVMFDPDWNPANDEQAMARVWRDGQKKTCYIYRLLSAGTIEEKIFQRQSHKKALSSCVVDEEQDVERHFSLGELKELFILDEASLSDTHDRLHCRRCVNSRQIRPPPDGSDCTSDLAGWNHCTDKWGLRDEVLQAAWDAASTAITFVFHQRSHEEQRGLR

Kallikrein-7 = Kallikrein-7 (Homo sapiens, UniProt P49862); assay: Fluorescence Intensity-based biochemical primary high throughput dose response assay to identify activators of kallikrein-7 (K7) zymogen.
Vibrio harveyi = assay: LuxS/LuxPQ-dependent luminescence inhibition, V. harveyi – dry powder, set 2, dose response (AID 493072); assay type: functional, organism-based
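Throughout, for CC50: cells exposed to compound for 72 hours before luminescence readout.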

T9 sequence (Q9HC97 whole entry): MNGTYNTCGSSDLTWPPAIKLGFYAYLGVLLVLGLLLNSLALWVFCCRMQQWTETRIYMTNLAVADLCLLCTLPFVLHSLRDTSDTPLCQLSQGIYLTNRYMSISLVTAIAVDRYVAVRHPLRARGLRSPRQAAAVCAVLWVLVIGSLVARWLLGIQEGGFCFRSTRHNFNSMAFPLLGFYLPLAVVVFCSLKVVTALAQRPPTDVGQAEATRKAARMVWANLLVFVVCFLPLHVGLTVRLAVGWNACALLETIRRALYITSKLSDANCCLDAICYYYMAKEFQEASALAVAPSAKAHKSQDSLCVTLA
T7 sequence (P34972 whole entry): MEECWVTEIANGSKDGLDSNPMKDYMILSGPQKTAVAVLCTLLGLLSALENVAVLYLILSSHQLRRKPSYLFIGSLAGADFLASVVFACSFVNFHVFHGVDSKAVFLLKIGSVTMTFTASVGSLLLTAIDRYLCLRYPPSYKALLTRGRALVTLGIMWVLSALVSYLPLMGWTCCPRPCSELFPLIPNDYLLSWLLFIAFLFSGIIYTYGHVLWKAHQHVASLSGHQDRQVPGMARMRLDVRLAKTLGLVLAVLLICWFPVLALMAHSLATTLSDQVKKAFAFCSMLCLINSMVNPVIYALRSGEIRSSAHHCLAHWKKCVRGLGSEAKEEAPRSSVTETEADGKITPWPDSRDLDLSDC
T8 sequence (P21554 whole entry): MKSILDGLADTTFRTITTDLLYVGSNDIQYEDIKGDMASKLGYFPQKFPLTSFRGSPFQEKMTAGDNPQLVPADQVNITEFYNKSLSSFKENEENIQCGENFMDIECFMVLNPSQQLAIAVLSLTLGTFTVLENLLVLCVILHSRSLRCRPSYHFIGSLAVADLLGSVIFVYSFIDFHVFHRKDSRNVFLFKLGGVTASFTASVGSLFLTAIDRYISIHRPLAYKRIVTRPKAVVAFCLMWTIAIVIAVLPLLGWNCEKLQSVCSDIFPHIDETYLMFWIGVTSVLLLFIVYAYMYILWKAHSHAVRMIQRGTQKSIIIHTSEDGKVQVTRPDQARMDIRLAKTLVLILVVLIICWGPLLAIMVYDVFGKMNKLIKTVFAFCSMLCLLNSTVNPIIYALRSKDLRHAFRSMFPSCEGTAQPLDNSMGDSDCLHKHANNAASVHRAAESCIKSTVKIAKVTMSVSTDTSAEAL
Sequence of G-protein coupled receptor 55 (Q9Y2T6 whole entry): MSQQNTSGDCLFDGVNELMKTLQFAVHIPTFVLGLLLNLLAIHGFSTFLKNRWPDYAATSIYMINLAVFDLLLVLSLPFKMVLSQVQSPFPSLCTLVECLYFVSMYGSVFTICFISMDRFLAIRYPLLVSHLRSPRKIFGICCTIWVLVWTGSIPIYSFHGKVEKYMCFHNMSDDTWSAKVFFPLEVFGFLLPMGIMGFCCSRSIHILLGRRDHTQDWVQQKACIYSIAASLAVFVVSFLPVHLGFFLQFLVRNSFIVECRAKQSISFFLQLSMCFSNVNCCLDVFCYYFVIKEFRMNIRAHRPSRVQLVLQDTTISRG
Sequence of Kallikrein-7 (P49862 whole entry): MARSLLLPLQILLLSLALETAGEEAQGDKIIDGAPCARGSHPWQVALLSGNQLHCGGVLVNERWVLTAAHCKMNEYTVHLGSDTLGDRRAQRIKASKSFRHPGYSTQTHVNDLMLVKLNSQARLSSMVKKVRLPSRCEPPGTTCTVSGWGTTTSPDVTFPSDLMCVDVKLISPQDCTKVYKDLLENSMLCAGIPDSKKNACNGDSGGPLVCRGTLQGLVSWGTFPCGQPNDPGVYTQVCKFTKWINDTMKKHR

## CC(=O)NC(=S)NNC(=O)c1ccc(Br)cc1
[1]
  IC50: 14.9 µM (active)
Cells [2]
  AC50: 46.3 µM (active)
Cells [3]
  AC50: > 52 µM (inactive)
Bcl-2-related protein A1
  IC50: > 20 µM (inactive)
[4]
  IC50: 17 µM (active)
[5]
  AC50: > 52 µM (inactive)

## N#CC(C#N)C(c1ccsc1)c1c(-c2ccccc2)n[nH]c1O (centres undefined)
[6]
  CC50: > 40 µM (active)
Protein RecA
  EC50: 468 nM (active)
Cells [7]
  EC50: 17.4 µM (inactive)
[8]
  AC50: 2.85 µM (active)
Galanin receptor type 3
  IC50: > 29.9 µM (inactive)
Leucine aminopeptidase
  IC50: 36.7 µM (active)

## CC1CCCCC1NC(=O)COC(=O)c1ccc2ncsc2c1 (centres undefined)
T-cell
  EC50: 48.4 µM (inactive)

## O=C(Nc1ccc(S(=O)(=O)Nc2nccs2)cc1)c1cc(-c2cccs2)nc2ccccc12
Cannabinoid receptor 2 [9]
  EC50: > 32 µM (inactive)
Cannabinoid receptor 1 [10]
  IC50: 4.09 µM (active)
Cannabinoid receptor 1 [11]
  EC50: > 32 µM (inactive)
[12]
  IC50: > 32 µM (inactive)
Cannabinoid receptor 2 [13]
  IC50: > 32 µM (inactive)
[14]
  IC50: 29 µM (inactive)
[15]
  EC50: > 32 µM (inactive)

## COc1cccc2sc3cc(NCC[C@@H]4CCCN4C)ccc3c(=O)c12
[16]
  EC50: > 100 µM (inactive)
[17]
  AC50: 9.49 µM (active)
Kallikrein-7
  EC50: > 69.5 µM (inactive)

## Cc1cccc(NC(=O)c2ccc(Oc3ccccc3)cc2)n1
Vibrio harveyi
  AC50: 15.2 µM (active)
